Where a SMILES comes first, the peptide text is derived from it. The star is where a group is joined. Cbz = O=C(OCc1ccccc1)*
Experiments:
[1] = tested on: I/R injury-induced cardiac ferroptosis; assay: I/R injury model in mice with ferroptosis inhibitors (TTC staining, serum LDH, MDA); format: in vivo; details: for cardiac MDA content / serum LDH concentration: mice after I/R injury; for cardiac MDA content: compared with WT mice; for serum LDH concentration / I/R-induced myocardial infarct size: effect comparable to p55γ^h-TG mice; for I/R-induced myocardial infarct size: mice, TTC staining
Experimental: p55γ transgenic (p55γ^h-TG) mice were established according to routine methods in the art. Male wild-type (WT) C57 mice and p55γ^h-TG mice aged 8 to 12 weeks were selected to set up a sham operation control group and experimental groups, respectively, to construct I/R injury models. TTC staining, MDA detection, and oxidized lipid detection were conducted according to conventional methods in the art. To determine whether p55γ protein could inhibit I/R injury-induced cardiac ferroptosis, the experiments were carried out with the following groups: mice treated with saline, mice treated with Ferrostatin-1 (Fer-1) and Dexrazoxane (DXZ), and p55γ^h-TG mice. The cardiac infarction area of mice was detected by conventional TTC staining and the serum LDH concentration was assayed by LDH release kits. […] In addition, lipid peroxidation in the hearts of mice in each group was detected by intracellular MDA content assay. […] Given that the peroxidation of polyunsaturated fatty acids (PUFAs) is an important step in ferroptosis, and in order to further clarify the role of p55γ gene in ferroptosis, oxidized lipid substances in the hearts of mice from the […] group and WT-I/R group were measured using liquid chromatography-tandem mass spectrometry (LC-MS/MS).

IRP2 = IRP2 mRNA and protein levels in cardiomyocytes (qPCR, Western blot); format: cell-based; details: Ad-p55γ-infected cardiomyocytes treated with MG132
Experimental: To elucidate whether the p55γ gene could regulate the mRNA stability of Tfr1through the IRPs-IRE system, the expression of IRP2 in NRVMs was evaluated. Ad-p55γ was used to infect cardiomyocytes, and qPCR and Western blot were conducted to detect Ad-p55γ-infected cardiomyocytes for 48 h.
Ad-p55γ-infected cardiomyocytes were treated with MG132. […] In order to further study whether p55γ could promote the ubiquitination and degradation of IRP2, the target gene sequences of p55γ, IRP2, and UB were found in NCBI. A pcDNA3.1(+) vector was used, sequence analysis software was used to find the restriction endonuclease cleavage sites present in the target gene sequences, and plasmids for p55γ, IRP2, and […] were constructed. The plasmids were separately transfected into HEK293T cells, which were collected 24 h later and IRP2 ubiquitination was detected. Western blot was conducted to detect the ubiquitination level of IRP2.

p55γ gene = p55γ gene mRNA and protein levels in cardiomyocytes treated with ferroptosis inducers (qPCR, Western blot); format: cell-based; details: NRVMs treated with ferroptosis inducer vs vehicle group
Experimental: The cultured cardiomyocytes were divided into: an erastin group and a vehicle group, where the NRVMs were treated with erastin in the erastin group, while the cardiomyocytes in the vehicle group were not treated in any way. The mRNA and protein levels of p55γ gene in the two groups of cardiomyocytes were detected by conventional quantitative polymerase chain reaction (qPCR) and Western blot methods.
The mRNA and protein levels of p55γ gene in the two groups of cardiomyocytes were detected by conventional qPCR and Western blot methods.

cardiomyocytes (NRVMs) = assay: H/R injury model in cardiomyocytes with perhexiline; format: cell-based
Experimental: (§1) In view of the importance of p55γ in combating ferroptosis, it is particularly important to find potential activators of p55γ for the treatment of I/R injury. Therefore, potential activators of p55γ were predicted using existing small molecule drug libraries. Subsequently, molecular docking analysis was conducted based on the crystal structure of p55γ. […] To determine the potential role of perhexiline in cardiomyocyte ferroptosis, experiments were first done in cardiomyocytes. […] The effect of perhexiline was further tested in the context of H/R injury model.

[2] = tested on: I/R injury-induced cardiac ferroptosis; assay: I/R injury model in mice pretreated with perhexiline (TTC staining, MDA); format: in vivo; details: intraperitoneal injection 24 h and 2 h before I/R
Experimental: p55γ knockout (p55γ^−/−) mice were established according to routine methods in the art. Male wild-type (WT) C57 mice and p55γ^−/− mice aged 8 to 12 weeks were selected to set up a sham operation control group and experimental groups, respectively, and the mice were intraperitoneally injected with perhexiline 24 h and 2 h before constructing the I/R injury model. TTC staining and MDA detection were conducted according to conventional methods in the art.

Tfr1 and IRP2 = assay: Western blot of Tfr1 and IRP2 after perhexiline treatment of cardiomyocytes; format: cell-based; details: 24 h treatment
Experimental: as §1

[3] = cardiomyocytes, H/R injury model
[4] = with overexpression of IRP2 (IRP2 adenovirus)

## C[C@@H](CN1CC(=O)NC(=O)C1)N1CC(=O)NC(=O)C1 [DXZ, Dexrazoxane]
[1]
  cardiac MDA content: significantly reduced
  serum LDH concentration: reduced
  I/R-induced myocardial infarct size: reduced

## CCOC(=O)c1ccc(NC2CCCCC2)c(N)c1 [Fer-1, Ferrostatin-1]
[1]
  cardiac MDA content: significantly reduced
  serum LDH concentration: reduced
  I/R-induced myocardial infarct size: reduced

## CC(C)C[C@@H](C=O)NC(=O)[C@H](CC(C)C)NC(=O)[C@H](CC(C)C)NC(=O)OCc1ccccc1 [MG132] (Cbz-Leu-Leu-Leu-aldehyde)
IRP2
  p55γ-mediated decrease in IRP2 protein: effectively eliminated

## COC(=O)c1ccc([C@@H]2c3[nH]c4ccccc4c3C[C@@H](C(=O)OC)N2C(=O)CCl)cc1 [RSL3]
p55γ gene; Western blot
  protein level of p55γ gene: down-regulated
p55γ gene; qPCR
  mRNA level of p55γ gene: down-regulated

## C1CCC(C(CC2CCCCN2)C2CCCCC2)CC1 (stereo not shown) [perhexiline]
Cardiomyocytes (NRVMs); [3]
  decrease in cell activity induced by H/R injury: significantly blocked
  increase in ptgs2 mRNA levels induced by H/R injury: significantly blocked
Cardiomyocytes (NRVMs); [4]
  inhibitory effect on H/R induced decrease in cell activity: could block the inhibitory effect
  inhibitory effect on H/R induced increase in ptgs2 mRNA levels: could block the inhibitory effect
[2]; WT mice
  level of MDA in the heart: reduce
[2]; WT mice, TTC staining
  myocardial infarct size: significantly reduce
[2]; p55γ^−/− mice
  cardioprotective effect (level of MDA in the heart): abolished
  cardioprotective effect (myocardial infarct size): abolished
Tfr1 and IRP2
  protein level of IRP2: significantly down-regulated
  protein level of Tfr1: significantly down-regulated
